Laboratory results taken from patent US8512995B2, “DNA encoding polypeptide involved in biosynthesis of herboxidiene” (Eisai R&D Management Co., Ltd., priority 2008, dated 2013).

Test system: WiDr human colon cancer cells
Test: Proliferation inhibitory action on WiDr human colon cancer cells (CellTiter-Glo luminescence)
Format: cell-based
Details: 72 h, 3 days culture, CellTiter-Glo luciferase luminescence as indicator of living cells
Description: WiDr human colon cancer cells, which had been cultured in an RPMI1640 medium (manufactured by SIGMA) containing 10% fetal bovine serum, penicillin (100 units/mL) and streptomycin (100 μg/mL), were dispersed on a 96-well plate in an amount of 2×10^3 cells/90 μl/well. The cells were cultured in a CO2 incubator overnight. Thereafter, 10 μl of the aforementioned culture solution containing the compound HX354 or HX355 of 3-fold dilution series used in the aforementioned examples was added to the culture, and the mixture was then cultured. Three days later, 50 μl of CellTiter-Glo Luminescent Cell Viability Assay (Promega) was added to the culture, the mixture was then shaken for 2 minutes, and it was then left at rest for 15 minutes. Thereafter, luciferase luminescence was measured with a luminometer, and the measured luminescence was used as an indicator for the number of living cells
The concentrations (IC50 values) of HX354 and HX355, where the proliferation of the WiDr human colon cancer cells was inhibited by were obtained.

SMILES	IC50 [nM]
CCC(OC)C(C)C1OC1(C)CC(C)/C=C/C=C(\C)C1OC(CC(=O)O)CCC1C (centres unmarked) [HX354]	91
CCC(O)C(C)C1OC1(C)CC(C)/C=C/C=C(\C)C1OC(CC(=O)O)CCC1C (centres unmarked) [HX355]	168
